One test deals with MIA PaCa-2 cells. The experiment in a line: Growth inhibition activity on KRAS-G12C mutant cell line (CellTiter-Glo 3D). Conditions: MIA PaCa-2, 3-day culture with compound. The format is cell-based, human. Summed up:
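MIA PaCa-2 cells in RPMI1640 with 10% FBS, U-bottom wells, cultured 1 day before compound (0.2% DMSO final), then 3 days at 37 °C, 5% CO2. Viability by CellTiter-Glo 3D luminescence; growth inhibition versus untreated wells gives IC50 (nM).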
For orientation: Cellular ATP, detected with luciferase, serves as a proxy for viable cell number.

In test [1] the target is T1, interaction between GMPPNP-bound recombinant K-Ras4B G12C mutant protein and cRAF RAS-binding domain (cRAF-RBD) (Homo sapiens, UniProt P01116, G12C).
T1 construct: His-tag (N)
Nature of the test: Inhibitory activity on interaction between KRAS G12C and cRAF (Alpha technology). The gist of the method: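 His-tagged K-Ras4B G12C (aa 1-169), GMPPNP-loaded, preincubated with compound 1 h at 25° C in pH 7.5 Tris buffer with MgCl2, TCEP, Tween 20. cRAF-RBD (aa 50-132) and Alpha reagents then added for 1.5 h; Alpha signal normalised to DMSO (0%) and GDP-bound KRAS (100%); IC50 from dose titration.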

Where [2] appears, read: Homo sapiens, MIA PaCa-2, 72 h, Table 3.
The mark [3] stands for this setting: IC50, GMPPNP-bound KRAS G12C incubated with compound 25° C. 1 hour, Table 2.
The mark [4] stands for this setting: Homo sapiens, MIA PaCa-2, 72 h, Table 3-1.
The mark [5] stands for this setting: GMPPNP-bound KRAS G12C incubated with compound 25° C. 1 hour, Table 2-1, read-out: IC50.

Each structure is given as a SMILES string. Like-named read-outs stand apart in the source and are kept apart here.

T1 sequence (P01116 with tags, fused parts or gaps isoform P01116-2 G12C): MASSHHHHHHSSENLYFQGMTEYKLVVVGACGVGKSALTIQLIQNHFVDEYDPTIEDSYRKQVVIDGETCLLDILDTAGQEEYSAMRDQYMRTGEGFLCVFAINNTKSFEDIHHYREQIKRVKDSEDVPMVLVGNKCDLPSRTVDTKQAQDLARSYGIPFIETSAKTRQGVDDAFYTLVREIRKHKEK

As for `CO[C@H]1CC[C@H](NC/C=C/C(=O)Nc2c(F)cc(C(=O)c3cn4c5c(cccc35)-c3c(C)cc5c(nc(C)n5C)c3CCC4)cc2F)CC1` [Example 27, (E)-N-(2,6-difluoro-4-(6,8,9-trimethyl-8,11,12,13-tetrahydroimidazo[4″,5″:3′,4′]benzo[1′,2′:4,5]azocino[3,2,1-hi]indole-2-carbonyl)phenyl)-4-(((1r,4r)-4-methoxycyclohexyl)amino)but-2-enamide], the IC50 in the test on MIA PaCa-2 cells (setting [2]) turned out to be 0.088 µM; in test [1] (setting [3]), 0.064 µM.
For `Cn1cnc2c3c(c(C(F)(F)F)cc21)-c1cccn2c(C(=O)c4cc(F)c(NC(=O)/C=C/CN5CC[C@H]5C(C)(C)O)c(F)c4)cc(c12)CCO3` [Example 162, (S,E)-N-(2,6-difluoro-4-(9-methyl-7-(trifluoro-methyl)-13,14-dihydro-9H-imidazo[4″,5″:5′,6′]-benzo[1′,2′:2,3]oxocino-[4,5,6-hi]indolizine-2-carbonyl)phenyl)-4-(2-(2-hydroxypropan-2-yl)-azetidin-1-yl)but-2-enamide], the half-maximal inhibitory concentration (IC50) turned out to be 0.0152 µM in the test on MIA PaCa-2 cells (setting [4]) and 0.0224 µM in test [1] (setting [5]).
The matching figures for `COCCn1cnc2c3c(c(OC)cc21)-c1cccn2c(C(=O)c4cc(F)c(NC(=O)/C=C/CNC5(C)CC5)c(F)c4)cc(c12)CCN3C` (single isomer, unassigned) [Example 202, (E)-N-(2,6-difluoro-4-(7-methoxy-9-(2-methoxy-ethyl)-12-methyl-9,12,13,14-tetrahydro-imidazo[4″,5″:5′,6′]benzo-[1′,2′:2,3]azocino[4,5,6-hi]indolizine-2-carbonyl)-phenyl)-4-((1-methyl-cyclopropyl)amino)but-2-enamide]: 0.0102 µM and 0.013 µM.
Regarding `CN1CCn2cc(C(=O)c3cc(F)c(NC(=O)/C=C/CNC(C)(C)CF)c(F)c3)c3cccc(c32)-c2c(C(F)(F)F)cc3c(ncn3C)c21` [Example 81, (E)-N-(4-(8,11-dimethyl-6-(trifluoromethyl)-8,11,12,13-tetrahydro-imidazo[4″,5″:5′,6′]benzo-[1′,2′:5,6][1,4]diazocino-[7,8,1-hi]indole-2-carbon-yl)-2,6-difluorophenyl)-4-((1-fluoro-2-methyl-propan-2-yl)amino)but-2-enamide], the IC50 in the test with MIA PaCa-2 cells (setting [4]) was 0.0334 µM; in test [1] (IC50, GMPPNP-bound KRAS G12C incubated with compound 25° C. 1 hour, Table 2-1), 0.0208 µM.
For `Cc1nc2c3c(c(C(F)(F)F)cc2n1C)-c1cccn2c(C(=O)c4cc(F)c(NC(=O)/C=C/CNC5COC5)c(F)c4)cc(c12)CCO3` [Example 51, (E)-N-(4-(9,10-dimethyl-7-(trifluoromethyl)-13,14-dihydro-9H-imidazo-[4″,5″:5′,6′]benzo[1′,2′: 2,3]oxocino[4,5,6-hi]-indolizine-2-carbonyl)-2,6-difluorophenyl)-4-(oxetan-3-ylamino)but-2-enamide], the figures for the IC50 (with MIA PaCa-2 cells (setting [4]); in test [1] (setting [5])) were 0.0159 µM and 0.0454 µM, respectively.
For `COCc1nc2c3c(c(OC)cc2n1C)-c1cccn2c(C(=O)c4cc(F)c(NC(=O)/C=C/CNC5(C)CC5)c(F)c4)cc(c12)CCN3C` [Example 174, (E)-N-(2,6-difluoro-4-(7-methoxy-10-(methoxymethyl)-9,12-dimethyl-9,12,13,14-tetrahydroimidazo[4″,5″:5′,6′]benzo[1′,2′:2,3]azocino[4,5,6-hi]indolizine-2-carbonyl)phenyl)-4-((1-methylcyclopropyl)amino)but-2-enamide] the same measures were 0.00745 µM and 0.00741 µM.
On to `CN1CCc2cc(C(=O)c3cc(F)c(NC(=O)/C=C/CN[C@H]4CCCC[C@@H]4O)c(F)c3)n3cccc(c23)-c2c(C(F)(F)F)cc3c(ncn3C)c21` [Example 101], for which the IC50 in the test with MIA PaCa-2 cells (setting [4]) was determined as 0.0265 µM; in test [1] (setting [5]), 0.0274 µM.
For `Cn1cnc2c3c(c(C(F)(F)F)cc21)-c1cccn2c(C(=O)c4cc(F)c(NC(=O)/C=C/CN5[C@@H]6CC[C@H]5[C@H](O)C6)c(F)c4)cc(c12)CCO3` (racemic) [Example 173] the same measures were 0.0106 µM and 0.00702 µM.
The matching figures for `Cn1cnc2c3c(c(C(F)(F)F)cc21)-c1cccn2c(C(=O)c4cc(F)c(NC(=O)/C=C/CN5CC6CCC5C6)c(F)c4)cc(c12)CCO3` (centres unmarked) [Example 234, (E)-4-(2-azabicyclo-[2.2.1]heptan-2-yl)-N-(2,6-difluoro-4-(9-meth-yl-7-(trifluoromethyl)-13,14-dihydro-9H-imidazo-[4″,5″:5′,6′]-benzo[1′,2′:2,3]oxocino-[4,5,6-hi]indolizine-2-carbonyl)phenyl)but-2-enamide]: 0.00708 µM and 0.0205 µM.
The matching figures for `Cn1cnc2c3c(c(C(F)(F)F)cc21)-c1cccn2c(C(=O)c4cc(F)c(NC(=O)/C=C/CNC5(C)COC5)c(F)c4)cc(c12)CCO3` (single isomer, unassigned) [Example 75, (E)-N-(2,6-difluoro-4-(9-methyl-7-(trifluoro-methyl)-13,14-dihydro-9H-imidazo[4″,5″:5′,6′]-benzo[1′,2′:2,3]oxocino-[4,5,6-hi]indolizine-2-carbonyl)phenyl)-4-((3-methyloxetan-3-yl)-amino)but-2-enamide]: 0.00948 µM and 0.0159 µM.
Take `C[C@@H](O)[C@@H]1CCCN1C/C=C/C(=O)Nc1c(F)cc(C(=O)c2cc3c4c(cccn24)-c2c(C(F)(F)F)cc4c(ncn4C)c2N(C)CC3)cc1F` [Example 211, (E)-N-(4-(9,12-dimethyl-7-(trifluoromethyl)-9,12,13,14-tetrahydro-imidazo[4″,5″:5′,6′]benzo-[1′,2′:2,3]azocino[4,5,6-hi]indolizine-2-carbonyl)-2,6-difluorophenyl)-4-((S)-2-((R)-1-hydroxy-ethyl)pyrrolidin-1-yl)but-2-enamide]: the results for the IC50 (in the test on MIA PaCa-2 cells (setting [4]); in test [1] (setting [5])) were 0.0109 µM and 0.0519 µM, respectively.
Regarding `CC1Cc2cc(C(=O)c3cc(F)c(NC(=O)/C=C/CNC4(C)COC4)c(F)c3)n3cccc(c23)-c2c(C(F)(F)F)cc3c(ncn3C)c2O1` (single isomer, unassigned) [Example 131, (E)-N-(4-(9,13-dimethyl-7-(trifluoromethyl)-13,14-dihydro-9H-imidazo[4″,5″:5′,6′]benzo[1′,2′:2,3]oxocino[4,5,6-hi]indolizine-2-carbonyl)-2,6-difluorophenyl)-4-((3-methyloxetan-3-yl)amino)but-2-enamide], the IC50 was 0.0408 µM in the test with MIA PaCa-2 cells (Table 3-1) and 0.0279 µM in test [1] (setting [5]).
In the case of `CO[C@H]1CC[C@H](NC/C=C/C(=O)Nc2c(F)cc(C(=O)c3cn4c5c(cccc35)-c3c(C)cc5c(nc(C)n5C)c3OC[C@@H]4C)cc2F)CC1` [Example 18, (E)-N-(2,6-difluoro-4-((S)-6,8,9,13-tetramethyl-12,13-dihydro-8H-imidazo[4″,5″:3′,4]benzo[1′,2′:7,8][1,4]oxazocino[6,5,4-hi]indole-2-carbonyl)phenyl)-4-(((1,4r)-4-methoxycyclohexyl)amino)but-2-enamide], the IC50 with MIA PaCa-2 cells (setting [2]) was 0.021 µM; in test [1] (setting [3]), 0.019 µM.
Turning to `Cn1cnc2c3c(c(C(F)(F)F)cc21)-c1cccn2c(C(=O)c4cc(F)c(NC(=O)/C=C/CN5[C@@H]6CC[C@H]5[C@@H](O)C6)c(F)c4)cc(c12)CCO3` (racemic) [Example 172], the IC50 with MIA PaCa-2 cells (setting [4]) stood at 0.0162 µM; in test [1] (setting [5]), 0.0104 µM.
Turning to `Cc1cc2c(nc(C)n2C)c2c1-c1cccn3c(C(=O)c4cc(F)c(NC(=O)/C=C/CN[C@H]5CCOC5)c(F)c4)cc(c13)CCN2C` (single isomer, unassigned) [Example 107], the figures for the IC50 (in the test on MIA PaCa-2 cells (setting [4]); in test [1] (setting [5])) were 0.0297 µM and 0.0237 µM, respectively.
The matching figures for `CO[C@H]1CC[C@H](NC/C=C/C(=O)Nc2c(F)cc(C(=O)c3cc4c5c(cccn35)-c3c(C(F)(F)F)cc5c(nc(C)n5C)c3N(C)CC4)cc2F)CC1` (single isomer, unassigned) [Example 63, (E)-N-(2,6-difluoro-4-(9,10,12-trimethyl-7-(tri-fluoromethyl)-9,12,13,14-tetrahydroimidazo-[4″,5″:5′,6′]benzo[1′,2′: 2,3]azocino[4,5,6-hi]-indolizine-2-carbonyl)-phenyl)-4-(((1r,4r)-4-methoxycyclohexyl)-amino)but-2-enamide]: 0.00248 µM and 0.0142 µM.
The matching figures for `Cc1c2cc(C(F)(F)F)c3c(c2nn1C)N(C)CCc1cc(C(=O)c2cc(F)c(NC(=O)/C=C/CNC4(C)CC4)c(F)c2)n2cccc-3c12` (single isomer, unassigned) [Example 155, (E)-N-(2,6-difluoro-4-(9,10,12-trimethyl-7-(trifluoromethyl)-10,12,13,14-tetrahydro-indolizino[8′,1′:4,5,6]-azocino[3,2-g]indazole-2-carbonyl)phenyl)-4-((1-methylcyclopropyl)-amino)but-2-enamide]: 0.0135 µM and 0.00895 µM.
For `CO[C@H]1CC[C@H](NC/C=C/C(=O)Nc2c(F)cc(C(=O)c3cn4c5c(cccc35)-c3c(Cl)cccc3OCCCC4)cc2F)CC1` [Example 3, (E)-N-(4-(12-chloro-4,5,6,7-tetrahydrobenzo[2,3][1,6]oxazecino[4,5,6-hi]indole-1-carbonyl)-2,6-difluorophenyl)-4-(((1,4r)-4-methoxycyclohexyl)amino)but-2-enamide], the IC50 was 4.4 µM in the test on MIA PaCa-2 cells (setting [2]) and 2.7 µM in test [1] (setting [3]).
Regarding `COc1cc2c(nc(C)n2C)c2c1-c1cccn3c(C(=O)c4cc(F)c(NC(=O)/C=C/CNC(C)(C)CF)c(F)c4)cc(c13)CCN2C` [Example 93], the half-maximal inhibitory concentration (IC50) with MIA PaCa-2 cells (setting [4]) is 0.0517 µM; in test [1] (setting [5]) it was 0.0336 µM.

By IC50 is commonly meant the midpoint of a concentration-inhibition curve.

Values taken from patent US20240262842A1, “SMALL MOLECULE INHIBITORS OF KRAS G12C MUTANT” (Merck Sharp & Dohme LLC, priority 2021, published 2024).
